In patent publication US20260027068A1, “METHODS OF ADM[…]-KETAMINE” (Perception Neuroscience, Inc., priority 2022, published 2026):

Test: Temperature (vital signs)
Conditions: 60 mg
Experimental: The Investigational Medicinal Product (IMP) R(−)-ketamine hydrochloride in sterile water for intravenous injection was investigated as an […] treatment of TRD. The International Union of Pure and Applied Chemistry (IUPAC) name is of the IMP is (2R)-2-(2-chlorophenyl)-2-(methylamino)cyclohexan-1-one. Subjects received the solution at either 30 mg or 60 mg dose, or a placebo. The IMP or placebo was administered on Day 1 as a single IV infusion via an electronic infusion pump over 40 minutes. The duration of study participation for each subject was up to 29 days including a screening period, a 3-day in-clinic visit, and 2 follow-up visits. 101 subjects were enrolled in approximately 20 study centers in the EU and the US.
Tympanic or temporal temperature, heart rate, blood pressure (SBP/DBP), respiratory rate, and SpO2 were assessed. Blood pressure and pulse measurements will be assessed with a completely automated device while the subject is supine or semi-supine. Manual techniques will be used only if an automated device is not available. Blood pressure and pulse measurements should be preceded by at least 5 minutes of rest for the subject in a quiet setting without distractions (e.g., television, cell phones). An abnormal blood pressure value at screening may be repeated once after 5 minutes of relaxation to determine the subject's eligibility. Blood pressure was recorded using the same arm and position (supine or semi-supine) throughout the study, where possible. Vital signs (to be taken before blood collection for laboratory tests) consisted of 1 pulse and 3 blood pressure measurements (3 consecutive blood pressure readings will be recorded at intervals of at least 1 minute). The average of the 3 blood pressure readings was recorded in the CRF. A pulse oximeter was used to measure peripheral capillary oxygen saturation (SpO2) continuously from pre-dose until 4-hours post-dose. A pulse oximeter was clipped onto the finger or foot of the subject, and light will be sent through the finger or foot and measured on the other side.
In these tables, baseline value is defined as the last non-missing value prior to study drug administration.

CN[C@@]1(c2ccccc2Cl)CCCCC1=O.Cl [R(−)-ketamine, (2R)-2-(2-chlorophenyl)-2-(methylamino)cyclohexan-1-one]
Temperature, Max (Day 1, 15 minutes): 36.9 °C
Temperature, Mean (Day 1, 15 minutes): 36.58 °C
Temperature, Median (Day 1, 15 minutes): 36.50 °C
Temperature, Min (Day 1, 15 minutes): 36.4 °C
Temperature, Max (Day 1, 40 minutes): 36.8 °C
Temperature, Mean (Day 1, 40 minutes): 36.58 °C
Temperature, Median (Day 1, 40 minutes): 36.60 °C
Temperature, Min (Day 1, 40 minutes): 36.3 °C
Temperature, Max (Day 1, 60 minutes): 36.8 °C
Temperature, Mean (Day 1, 60 minutes): 36.55 °C
Temperature, Median (Day 1, 60 minutes): 36.50 °C
Temperature, Min (Day 1, 60 minutes): 36.4 °C
Temperature, Max (Day 1, 2 hours): 37.0 °C
Temperature, Mean (Day 1, 2 hours): 36.60 °C
Temperature, Median (Day 1, 2 hours): 36.60 °C
Temperature, Min (Day 1, 2 hours): 36.2 °C
Temperature, Max (Day 1, 4 hours): 37.0 °C
Temperature, Mean (Day 1, 4 hours): 36.60 °C
Temperature, Median (Day 1, 4 hours): 36.60 °C
Temperature, Min (Day 1, 4 hours): 36.3 °C
Temperature, Max (Day 1, 6 hours): 37.1 °C
Temperature, Mean (Day 1, 6 hours): 36.61 °C
Temperature, Median (Day 1, 6 hours): 36.60 °C
Temperature, Min (Day 1, 6 hours): 36.1 °C
Temperature, Max (Day 2 - Discharge): 36.9 °C
Temperature, Mean (Day 2 - Discharge): 36.60 °C
Temperature, Median (Day 2 - Discharge): 36.60 °C
Temperature, Min (Day 2 - Discharge): 36.1 °C
Temperature, Max (Day 8): 37.2 °C
Temperature, Mean (Day 8): 36.55 °C
Temperature, Median (Day 8): 36.60 °C
Temperature, Min (Day 8): 35.8 °C
Temperature, Max (Day 15): 37.0 °C
Temperature, Mean (Day 15): 36.62 °C
Temperature, Median (Day 15): 36.60 °C
Temperature, Min (Day 15): 36.3 °C
Temperature, Change from Baseline, Max (to Day 1, 15 minutes): 0.3 °C
Temperature, Change from Baseline, Mean (to Day 1, 15 minutes): 0.04 °C
Temperature, Change from Baseline, Median (to Day 1, 15 minutes): 0.00 °C
Temperature, Change from Baseline, Min (to Day 1, 15 minutes): −0.2 °C
Temperature, Change from Baseline, Max (to Day 1, 40 minutes): 0.7 °C
Temperature, Change from Baseline, Mean (to Day 1, 40 minutes): 0.05 °C
Temperature, Change from Baseline, Median (to Day 1, 40 minutes): 0.00 °C
Temperature, Change from Baseline, Min (to Day 1, 40 minutes): −0.4 °C
Temperature, Change from Baseline, Max (to Day 1, 60 minutes): 0.3 °C
Temperature, Change from Baseline, Mean (to Day 1, 60 minutes): 0.01 °C
Temperature, Change from Baseline, Median (to Day 1, 60 minutes): 0.00 °C
Temperature, Change from Baseline, Min (to Day 1, 60 minutes): −0.3 °C
Temperature, Change from Baseline, Max (to Day 1, 2 hours): 0.8 °C
Temperature, Change from Baseline, Mean (to Day 1, 2 hours): 0.07 °C
Temperature, Change from Baseline, Median (to Day 1, 2 hours): 0.00 °C
Temperature, Change from Baseline, Min (to Day 1, 2 hours): −0.5 °C
Temperature, Change from Baseline, Max (to Day 1, 4 hours): 0.9 °C
Temperature, Change from Baseline, Mean (to Day 1, 4 hours): 0.07 °C
Temperature, Change from Baseline, Median (to Day 1, 4 hours): 0.00 °C
Temperature, Change from Baseline, Min (to Day 1, 4 hours): −0.2 °C
Temperature, Change from Baseline, Max (to Day 1, 6 hours): 1.0 °C
Temperature, Change from Baseline, Mean (to Day 1, 6 hours): 0.07 °C
Temperature, Change from Baseline, Median (to Day 1, 6 hours): 0.00 °C
Temperature, Change from Baseline, Min (to Day 1, 6 hours): −0.4 °C
Temperature, Change from Baseline, Max (to Day 2 - Discharge): 0.6 °C
Temperature, Change from Baseline, Mean (to Day 2 - Discharge): 0.07 °C
Temperature, Change from Baseline, Median (to Day 2 - Discharge): 0.10 °C
Temperature, Change from Baseline, Min (to Day 2 - Discharge): −0.7 °C
Temperature, Change from Baseline, Max (to Day 8): 1.2 °C
Temperature, Change from Baseline, Mean (to Day 8): 0.01 °C
Temperature, Change from Baseline, Median (to Day 8): 0.00 °C
Temperature, Change from Baseline, Min (to Day 8): −0.9 °C
Temperature, Change from Baseline, Max (to Day 15): 1.2 °C
Temperature, Change from Baseline, Mean (to Day 15): 0.08 °C
Temperature, Change from Baseline, Median (to Day 15): 0.00 °C
Temperature, Change from Baseline, Min (to Day 15): −0.5 °C
